The text below walks through data of publication PMC12212452, “Studies of All-trans Retinoic Acid Transport in the Eye” (Investigative Ophthalmology & Visual Science, 2025).

Common to all, as to assay: tryptophan fluorescence quenching, quadratic fit
What all share (settings): read-out: Association Constant / Quadratic Model Ka (×10^5 M^-1) (converted)

The target of test [1] is T1, BSA (bovine serum albumin) (Bos taurus, UniProt P02769).
T1 construct: gene ALB; not biotinylated in the Ka titrations
The test is classed as binding. An excerpt: tryptophan fluorescence quenching, quadratic fit on BSA (bovine serum albumin)

The target in test [2] is T2, CRABP2 (cellular retinoic acid-binding protein 2) (Mus musculus, UniProt P22935).
T2 construct: recombinant in E. coli BL21(DE3), GST tag removed by PreScission Protease
T2 sequence (P22935 1-138): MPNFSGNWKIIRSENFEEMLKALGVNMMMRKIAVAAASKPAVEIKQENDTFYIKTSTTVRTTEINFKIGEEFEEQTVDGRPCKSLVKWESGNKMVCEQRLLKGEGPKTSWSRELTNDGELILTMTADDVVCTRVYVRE
An excerpt:
tryptophan fluorescence quenching, quadratic fit on CRABP2 (cellular retinoic acid-binding protein 2)

Test [3] addresses T3, RBP1 (cellular retinol-binding protein 1) (Mus musculus, UniProt Q00915).
T3 construct: recombinant in E. coli BL21, GST tag cleaved with ProTEV protease
T3 sequence (Q00915 1-135): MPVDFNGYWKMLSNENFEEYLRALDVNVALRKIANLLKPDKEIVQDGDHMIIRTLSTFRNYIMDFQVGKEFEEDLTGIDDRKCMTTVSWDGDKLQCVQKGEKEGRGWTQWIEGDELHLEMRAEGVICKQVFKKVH
From the text: tryptophan fluorescence quenching, quadratic fit on RBP1 (cellular retinol-binding protein 1)

T1 sequence (P02769 25-607): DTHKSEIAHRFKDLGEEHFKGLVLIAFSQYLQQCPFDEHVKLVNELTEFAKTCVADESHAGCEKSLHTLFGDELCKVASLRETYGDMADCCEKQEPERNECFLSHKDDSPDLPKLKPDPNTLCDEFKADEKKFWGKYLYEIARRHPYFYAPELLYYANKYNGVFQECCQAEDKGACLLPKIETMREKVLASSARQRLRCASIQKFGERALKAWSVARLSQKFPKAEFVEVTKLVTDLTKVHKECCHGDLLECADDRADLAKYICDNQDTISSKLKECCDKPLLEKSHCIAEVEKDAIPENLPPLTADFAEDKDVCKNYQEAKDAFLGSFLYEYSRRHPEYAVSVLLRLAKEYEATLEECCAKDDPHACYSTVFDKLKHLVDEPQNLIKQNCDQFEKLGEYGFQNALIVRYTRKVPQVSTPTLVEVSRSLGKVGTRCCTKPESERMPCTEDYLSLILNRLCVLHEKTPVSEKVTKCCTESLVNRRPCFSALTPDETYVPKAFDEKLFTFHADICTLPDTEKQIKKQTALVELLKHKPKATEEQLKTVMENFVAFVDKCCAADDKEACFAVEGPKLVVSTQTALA

Regarding `CC1=C(/C=C/C(C)=C/C=C/C(C)=C/C(=O)O)C(C)(C)CCC1` [atRA], the figures for the Kd in test [1] and in test [2] were 4170 nM and 12.8 nM, respectively.

As for `CC(C)N1CCC(C)(C)c2cc(C#Cc3ccc(C(=O)O)cc3)ccc21` [floRA], the values for the Kd in test [3], in test [1] and in test [2] were 1270 nM, 4760 nM and 14.9 nM, respectively.
